Laboratory results: patent US20250195536A1, “BICYCLOOCTANE KRAS INHIBITORS” (Incyte Corporation, priority 2023, published 2025)

Legend:
KRAS G12V = KRAS G12V (Homo sapiens, UniProt P01116, G12V); assay: GDP-GTP exchange assay (KRAS G12V); type: biochemical; settings: bodipy-GDP/GppNHp exchange with SOS1; 3 h incubation after GppNHp-SOS1;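 further: one dagger IC50 up to 100 nM and two daggers above 100 nM up to 1 μM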
Summary of the method: (§1)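 Bodipy-GDP-loaded KRAS (2.5 nM final) was pre-incubated 4 h at r.t. with inhibitor in Hepes pH 7.5 buffer with MgCl2, then exchange started with GppNHp (500 μM) and SOS1 (150 nM) final. Fluorescence (ex 485/em 520 nm) read after 2 h for G12D, 3 h for G12V; IC50 from four-parameter logistic fit.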

KRAS G12D = KRAS G12D (Homo sapiens, UniProt P01116, G12D); assay: GDP-GTP exchange assay (KRAS G12D); type: biochemical; settings: bodipy-GDP/GppNHp exchange with SOS1; 4 h pre-incubation, 2 h reaction;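 further: one dagger IC50 up to 100 nM and two daggers above 100 nM up to 1 μM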
Summary of the method: as §1

[1] = Caco2 assay (permeability, Papp A-B); type: in vitro ADME; settings: human, Caco-2, absorptive direction (A-B), 50 μM test compound, 4% BSA in receiver
Summary of the method: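 Caco-2 monolayers, 22-25 days on Transwells, TEER 300 Ω·cm^2, dosed apically with 50 μM compound in HBSS; basolateral HBSS with 4% BSA. 120 min at 37 °C, samples quantified by LCMS; Papp (A-B) from receiver-side cumulative flux slope, donor volume, surface area and initial donor amount.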

Sequence of KRAS G12V (P01116 1-188 isoform P01116-2 G12V): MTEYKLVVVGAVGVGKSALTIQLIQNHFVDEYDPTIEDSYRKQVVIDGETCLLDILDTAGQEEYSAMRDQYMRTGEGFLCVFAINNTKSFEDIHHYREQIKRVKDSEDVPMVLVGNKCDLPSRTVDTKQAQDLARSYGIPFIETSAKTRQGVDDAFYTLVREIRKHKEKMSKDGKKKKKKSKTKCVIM
Sequence of KRAS G12D (P01116 1-188 isoform P01116-2 G12D): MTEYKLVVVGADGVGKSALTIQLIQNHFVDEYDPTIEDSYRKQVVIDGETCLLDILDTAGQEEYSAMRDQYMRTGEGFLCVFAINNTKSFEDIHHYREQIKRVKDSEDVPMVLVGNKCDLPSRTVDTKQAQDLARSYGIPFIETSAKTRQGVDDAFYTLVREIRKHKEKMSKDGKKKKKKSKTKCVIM

G12V_exchange (KRAS_G12V exchange assay IC50) (KRAS G12V) | G12D_exchange (KRAS_G12D exchange assay IC50) (KRAS G12D) | Papp A→B at 120 min, 50 μM [1] [×10⁻⁶ cm/s] | SMILES
† | †† | ≤ 0.5 | Cc1nc2c(F)c(-c3cccc(Cl)c3Cl)c(CCC#N)cc2c2c1cc([C@H]1[C@H]3C[C@H](CN(c4cccc(OC(F)F)c4)C3)N1C(=O)C1CC1)n2[C@H]1[C@H]2CN[C@@H]1C2 (atropisomer, axis not shown; (Ra)) [Example 26, 3-((Ra)-1-((1R,4R,5S)-2-azabicyclo[2.1.1]hexan-5-yl)-2-((1S,5R,7R)-6-(cyclopropanecarbonyl)-3-(3-(difluoromethoxy)phenyl)-3,6-diazabicyclo[3.2.1]octan-7-yl)-7-(2,3-dichlorophenyl)-6-fluoro-4-methyl-1H-pyrrolo[3,2-c]quinolin-8-yl)propanenitrile]
† | † | ≤ 0.5 | Cc1nc2c(F)c(-c3cccc(Cl)c3Cl)c(CCC#N)cc2c2c1cc([C@H]1[C@H]3C[C@H](CN(c4cnn(C(F)(F)F)c4)C3)N1C(=O)C1CC1)n2[C@H]1[C@H]2CN[C@@H]1C2 (atropisomer, axis not shown; (Ra)) [Example 27, 3-((Ra)-1-((1R,4R,5S)-2-azabicyclo[2.1.1]hexan-5-yl)-2-((1S,5R,7R)-6-(cyclopropanecarbonyl)-3-(1-(trifluoromethyl)-1H-pyrazol-4-yl)-3,6-diazabicyclo[3.2.1]octan-7-yl)-7-(2,3-dichlorophenyl)-6-fluoro-4-methyl-1H-pyrrolo[3,2-c]quinolin-8-yl)propanenitrile]
† | †† | ≤ 0.5 | Cc1nc2c(F)c(-c3cccc(Cl)c3Cl)c(CCC#N)cc2c2c1cc([C@H]1[C@H]3C[C@H](CN(c4ccc(OC(F)(F)F)cc4F)C3)N1C(=O)C1CC1)n2[C@H]1[C@H]2CN[C@@H]1C2 (atropisomer, axis not shown; (Ra)) [Example 28, 3-((Ra)-1-((1R,4R,5S)-2-azabicyclo[2.1.1]hexan-5-yl)-2-((1S,5R,7R)-6-(cyclopropanecarbonyl)-3-(2-fluoro-4-(trifluoromethoxy)phenyl)-3,6-diazabicyclo[3.2.1]octan-7-yl)-7-(2,3-dichlorophenyl)-6-fluoro-4-methyl-1H-pyrrolo[3,2-c]quinolin-8-yl)propanenitrile]
† | † | ≤ 0.5 | Cc1nc2c(F)c(-c3cccc(Cl)c3Cl)c(CCC#N)cc2c2c1cc([C@H]1[C@H]3C[C@H](CN(c4cn(C)nc4C(F)(F)F)C3)N1C(=O)C1CC1)n2[C@H]1[C@H]2CN[C@@H]1C2 (atropisomer, axis not shown; (Ra)) [Example 29, 3-((Ra)-1-((1R,4R,5S)-2-azabicyclo[2.1.1]hexan-5-yl)-2-((1S,5R,7R)-6-(cyclopropanecarbonyl)-3-(1-methyl-3-(trifluoromethyl)-1H-pyrazol-4-yl)-3,6-diazabicyclo[3.2.1]octan-7-yl)-7-(2,3-dichlorophenyl)-6-fluoro-4-methyl-1H-pyrrolo[3,2-c]quinolin-8-yl)propanenitrile]
† | † | ≤ 0.5 | Cc1ncnc(N2C[C@@H]3C[C@H](C2)N(C(=O)C2CC2)[C@H]3c2cc3c(C)nc4c(F)c(-c5cccc(Cl)c5Cl)c(CCC#N)cc4c3n2[C@H]2[C@H]3CN[C@@H]2C3)c1F (atropisomer, axis not shown; (Ra)) [Example 31, 3-((Ra)-1-((1R,4R,5S)-2-Azabicyclo[2.1.1]hexan-5-yl)-2-((1 S,5R,7R)-6-(cyclopropanecarbonyl)-3-(5-fluoro-6-methylpyrimidin-4-yl)-3,6-diazabicyclo[3.2.1]octan-7-yl)-7-(2,3-dichlorophenyl)-6-fluoro-4-methyl-1H-pyrrolo[3,2-c]quinolin-8-yl)propanenitrile]
† | † | > 1 | Cc1nc2c(F)c(-c3cccc(Cl)c3Cl)c(CCC#N)cc2c2c1cc([C@H]1[C@H]3C[C@H](CN(c4ncc(C(C)C)s4)C3)N1C(=O)C1CC1)n2[C@H]1[C@H]2CN[C@@H]1C2 (atropisomer, axis not shown; (Ra)) [Example 32, 3-((Ra)-1-((1R,4R,5S)-2-Azabicyclo[2.1.1]hexan-5-yl)-2-((1 S,5R,7R)-6-(cyclopropanecarbonyl)-3-(5-isopropylthiazol-2-yl)-3,6-diazabicyclo[3.2.1]octan-7-yl)-7-(2,3-dichlorophenyl)-6-fluoro-4-methyl-1H-pyrrolo[3,2-c]quinolin-8-yl)propanenitrile]
† | † | ≤ 0.5 | Cc1nc2c(F)c(-c3cccc(Cl)c3Cl)c(CCC#N)cc2c2c1cc([C@H]1[C@H]3C[C@H](CN(c4ncccn4)C3)N1C(=O)C1CC1)n2[C@H]1[C@H]2CN[C@@H]1C2 (atropisomer, axis not shown; (Ra)) [Example 33, 3-((Ra)-1-((1R,4R,5S)-2-azabicyclo[2.1.1]hexan-5-yl)-2-((1S,5R,7R)-6-(cyclopropanecarbonyl)-3-(pyrimidin-2-yl)-3,6-diazabicyclo[3.2.1]octan-7-yl)-7-(2,3-dichlorophenyl)-6-fluoro-4-methyl-1H-pyrrolo[3,2-c]quinolin-8-yl)propanenitrile]
† | † | ≤ 0.5 | Cc1nc2c(F)c(-c3cccc(Cl)c3Cl)c(CCC#N)cc2c2c1cc([C@H]1[C@H]3C[C@H](CN(c4ccc(C(F)(F)F)nn4)C3)N1C(=O)C1CC1)n2[C@H]1[C@H]2CN[C@@H]1C2 (atropisomer, axis not shown; (Ra)) [Example 34, 3-((Ra)-1-((1R,4R,5S)-2-azabicyclo[2.1.1]hexan-5-yl)-2-((1S,5R,7R)-6-(cyclopropanecarbonyl)-3-(6-(trifluoromethyl)pyridazin-3-yl)-3,6-diazabicyclo[3.2.1]octan-7-yl)-7-(2,3-dichlorophenyl)-6-fluoro-4-methyl-1H-pyrrolo[3,2-c]quinolin-8-yl)propanenitrile]
† | † | ≤ 0.5 | Cc1nc2c(F)c(-c3cccc(Cl)c3Cl)c(CCC#N)cc2c2c1cc([C@H]1[C@H]3C[C@H](CN(c4ccn(C)c(=O)c4)C3)N1C(=O)C1CC1)n2[C@H]1[C@H]2CN[C@@H]1C2 (atropisomer, axis not shown; (Ra)) [Example 35, 3-((Ra)-1-((1R,4R,5S)-2-azabicyclo[2.1.1]hexan-5-yl)-2-((1S,5R,7R)-6-(cyclopropanecarbonyl)-3-(1-methyl-2-oxo-1,2-dihydropyridin-4-yl)-3,6-diazabicyclo[3.2.1]octan-7-yl)-7-(2,3-dichlorophenyl)-6-fluoro-4-methyl-1H-pyrrolo[3,2-c]quinolin-8-yl)propanenitrile]
† | † | ≤ 0.5 | Cc1nc2c(F)c(-c3cccc(Cl)c3Cl)c(CCC#N)cc2c2c1cc([C@H]1[C@H]3C[C@H](CN(c4ccccn4)C3)N1C(=O)C1CC1)n2[C@H]1[C@H]2CN[C@@H]1C2 (atropisomer, axis not shown; (Ra)) [Example 36, 3-((Ra)-1-((1R,4R,5S)-2-azabicyclo[2.1.1]hexan-5-yl)-2-((1S,5R,7R)-6-(cyclopropanecarbonyl)-3-(pyridin-2-yl)-3,6-diazabicyclo[3.2.1]octan-7-yl)-7-(2,3-dichlorophenyl)-6-fluoro-4-methyl-1H-pyrrolo[3,2-c]quinolin-8-yl)propanenitrile]
† | † | ≤ 0.5 | Cc1nc2c(F)c(-c3cccc(Cl)c3Cl)c(CCC#N)cc2c2c1cc([C@H]1[C@H]3C[C@H](CN(c4ccnc(C(F)(F)F)c4)C3)N1C(=O)C1CC1)n2[C@H]1[C@H]2CN[C@@H]1C2 (atropisomer, axis not shown; (Ra)) [Example 38, 3-((Ra)-1-((1R,4R,5S)-2-azabicyclo[2.1.1]hexan-5-yl)-2-((1S,5R,7R)-6-(cyclopropanecarbonyl)-3-(2-(trifluoromethyl)pyridin-4-yl)-3,6-diazabicyclo[3.2.1]octan-7-yl)-7-(2,3-dichlorophenyl)-6-fluoro-4-methyl-1H-pyrrolo[3,2-c]quinolin-8-yl)propanenitrile]
† | † | ≤ 0.5 | Cc1nc2c(F)c(-c3cccc(Cl)c3Cl)c(CCC#N)cc2c2c1cc([C@H]1[C@H]3C[C@H](CN(c4cc(C(F)(F)F)ccn4)C3)N1C(=O)C1CC1)n2[C@H]1[C@H]2CN[C@@H]1C2 (atropisomer, axis not shown; (Ra)) [Example 39, 3-((Ra)-1-((1R,4R,5S)-2-azabicyclo[2.1.1]hexan-5-yl)-2-((1S,5R,7R)-6-(cyclopropanecarbonyl)-3-(4-(trifluoromethyl)pyridin-2-yl)-3,6-diazabicyclo[3.2.1]octan-7-yl)-7-(2,3-dichlorophenyl)-6-fluoro-4-methyl-1H-pyrrolo[3,2-c]quinolin-8-yl)propanenitrile]
